The text below walks through data of patent publication US20230150974A1 (Foghorn Therapeutics Inc., priority 2020, published 2023).

The target in one test is T1, HiBiT-BRM (Homo sapiens, UniProt P51531).
T1 construct: expressed in transfected cells
Kind of test: HiBiT-BRM cell-based degradation assay (Nano-Glo HiBiT Lytic Detection). Conditions: HeLa cells expressing HiBiT-BRM, 24 h; for DC50: read-out: BRM HiBit Degradation IC50. In a few lines:
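HeLa cells stably expressing HiBiT-tagged BRM were treated for 24 h, then lysed with LgBiT-containing Nano-Glo reagent and luminescence read. % degradation scaled between DMSO (high control) and 2 μM reference BRM/BRG1 degrader (low control).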

The target of the next test is T2, HiBit-BRG1 (Homo sapiens, UniProt P51532).
T2 construct: expressed in transfected cells
In words: HiBit-BRG1 cell-based degradation assay (Nano-Glo HiBiT Lytic Detection). Conditions: HeLa cells expressing HiBit-BRG1 and LgBit, 24 h; for DC50: read-out: BRG1 HiBit Degradation IC50; for Dmax: read-out: BRG1 HiBit Degradation Maximum (%). In outline: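 Luminescence from Nano-Glo HiBiT lytic detection, read after 24 h compound exposure, scored degradation in a stable HeLa HiBiT-BRG1/LgBit line seeded at 5000 cells/well. DMSO wells defined 0% and 2 μM known BRM/BRG1 degrader wells defined full degradation.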
In general terms: HiBiT is a short tag that completes a luciferase, so light tracks the accessible tagged protein.

Some results are limits rather than exact numbers.

T2 sequence (P51532 whole entry): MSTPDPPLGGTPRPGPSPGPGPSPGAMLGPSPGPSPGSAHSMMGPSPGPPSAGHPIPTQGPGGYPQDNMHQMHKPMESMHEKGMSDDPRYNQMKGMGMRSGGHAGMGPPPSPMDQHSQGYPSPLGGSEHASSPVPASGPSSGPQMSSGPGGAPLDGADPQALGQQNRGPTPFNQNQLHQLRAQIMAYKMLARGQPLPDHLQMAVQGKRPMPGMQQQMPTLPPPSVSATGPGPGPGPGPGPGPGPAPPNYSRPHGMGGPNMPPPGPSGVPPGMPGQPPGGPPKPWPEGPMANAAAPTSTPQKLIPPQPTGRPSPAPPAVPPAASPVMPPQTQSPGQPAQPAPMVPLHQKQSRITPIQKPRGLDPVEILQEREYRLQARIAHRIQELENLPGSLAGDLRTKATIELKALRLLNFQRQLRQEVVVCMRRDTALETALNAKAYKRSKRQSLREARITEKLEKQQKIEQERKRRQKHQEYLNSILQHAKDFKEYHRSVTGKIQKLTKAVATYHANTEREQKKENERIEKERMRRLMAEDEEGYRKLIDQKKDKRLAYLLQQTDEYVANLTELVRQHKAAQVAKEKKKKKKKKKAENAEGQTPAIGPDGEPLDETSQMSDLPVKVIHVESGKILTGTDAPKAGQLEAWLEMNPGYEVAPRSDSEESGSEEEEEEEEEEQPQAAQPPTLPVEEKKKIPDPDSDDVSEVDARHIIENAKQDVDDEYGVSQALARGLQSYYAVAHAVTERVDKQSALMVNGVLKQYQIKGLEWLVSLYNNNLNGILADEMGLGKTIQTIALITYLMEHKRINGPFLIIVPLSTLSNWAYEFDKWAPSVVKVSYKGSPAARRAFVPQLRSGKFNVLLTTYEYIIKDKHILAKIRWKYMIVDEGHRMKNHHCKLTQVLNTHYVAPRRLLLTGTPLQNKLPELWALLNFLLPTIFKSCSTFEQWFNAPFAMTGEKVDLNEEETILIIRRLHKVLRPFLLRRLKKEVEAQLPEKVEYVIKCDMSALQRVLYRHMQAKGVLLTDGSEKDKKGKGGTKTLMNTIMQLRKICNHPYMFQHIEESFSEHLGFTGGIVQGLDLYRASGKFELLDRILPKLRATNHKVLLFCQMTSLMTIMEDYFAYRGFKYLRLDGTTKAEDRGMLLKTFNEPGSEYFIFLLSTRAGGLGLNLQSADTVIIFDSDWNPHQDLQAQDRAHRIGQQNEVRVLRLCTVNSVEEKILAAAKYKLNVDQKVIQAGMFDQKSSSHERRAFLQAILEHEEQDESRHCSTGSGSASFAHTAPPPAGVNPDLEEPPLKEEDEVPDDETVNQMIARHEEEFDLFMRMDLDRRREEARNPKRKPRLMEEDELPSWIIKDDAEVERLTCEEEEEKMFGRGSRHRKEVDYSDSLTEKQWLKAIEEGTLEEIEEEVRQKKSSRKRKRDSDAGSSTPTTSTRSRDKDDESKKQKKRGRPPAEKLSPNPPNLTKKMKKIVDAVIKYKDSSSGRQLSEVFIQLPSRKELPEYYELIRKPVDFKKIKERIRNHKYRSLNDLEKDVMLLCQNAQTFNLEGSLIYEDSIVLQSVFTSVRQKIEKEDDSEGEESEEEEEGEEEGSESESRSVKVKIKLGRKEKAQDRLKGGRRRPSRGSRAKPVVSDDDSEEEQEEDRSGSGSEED
T1 sequence (P51531 whole entry): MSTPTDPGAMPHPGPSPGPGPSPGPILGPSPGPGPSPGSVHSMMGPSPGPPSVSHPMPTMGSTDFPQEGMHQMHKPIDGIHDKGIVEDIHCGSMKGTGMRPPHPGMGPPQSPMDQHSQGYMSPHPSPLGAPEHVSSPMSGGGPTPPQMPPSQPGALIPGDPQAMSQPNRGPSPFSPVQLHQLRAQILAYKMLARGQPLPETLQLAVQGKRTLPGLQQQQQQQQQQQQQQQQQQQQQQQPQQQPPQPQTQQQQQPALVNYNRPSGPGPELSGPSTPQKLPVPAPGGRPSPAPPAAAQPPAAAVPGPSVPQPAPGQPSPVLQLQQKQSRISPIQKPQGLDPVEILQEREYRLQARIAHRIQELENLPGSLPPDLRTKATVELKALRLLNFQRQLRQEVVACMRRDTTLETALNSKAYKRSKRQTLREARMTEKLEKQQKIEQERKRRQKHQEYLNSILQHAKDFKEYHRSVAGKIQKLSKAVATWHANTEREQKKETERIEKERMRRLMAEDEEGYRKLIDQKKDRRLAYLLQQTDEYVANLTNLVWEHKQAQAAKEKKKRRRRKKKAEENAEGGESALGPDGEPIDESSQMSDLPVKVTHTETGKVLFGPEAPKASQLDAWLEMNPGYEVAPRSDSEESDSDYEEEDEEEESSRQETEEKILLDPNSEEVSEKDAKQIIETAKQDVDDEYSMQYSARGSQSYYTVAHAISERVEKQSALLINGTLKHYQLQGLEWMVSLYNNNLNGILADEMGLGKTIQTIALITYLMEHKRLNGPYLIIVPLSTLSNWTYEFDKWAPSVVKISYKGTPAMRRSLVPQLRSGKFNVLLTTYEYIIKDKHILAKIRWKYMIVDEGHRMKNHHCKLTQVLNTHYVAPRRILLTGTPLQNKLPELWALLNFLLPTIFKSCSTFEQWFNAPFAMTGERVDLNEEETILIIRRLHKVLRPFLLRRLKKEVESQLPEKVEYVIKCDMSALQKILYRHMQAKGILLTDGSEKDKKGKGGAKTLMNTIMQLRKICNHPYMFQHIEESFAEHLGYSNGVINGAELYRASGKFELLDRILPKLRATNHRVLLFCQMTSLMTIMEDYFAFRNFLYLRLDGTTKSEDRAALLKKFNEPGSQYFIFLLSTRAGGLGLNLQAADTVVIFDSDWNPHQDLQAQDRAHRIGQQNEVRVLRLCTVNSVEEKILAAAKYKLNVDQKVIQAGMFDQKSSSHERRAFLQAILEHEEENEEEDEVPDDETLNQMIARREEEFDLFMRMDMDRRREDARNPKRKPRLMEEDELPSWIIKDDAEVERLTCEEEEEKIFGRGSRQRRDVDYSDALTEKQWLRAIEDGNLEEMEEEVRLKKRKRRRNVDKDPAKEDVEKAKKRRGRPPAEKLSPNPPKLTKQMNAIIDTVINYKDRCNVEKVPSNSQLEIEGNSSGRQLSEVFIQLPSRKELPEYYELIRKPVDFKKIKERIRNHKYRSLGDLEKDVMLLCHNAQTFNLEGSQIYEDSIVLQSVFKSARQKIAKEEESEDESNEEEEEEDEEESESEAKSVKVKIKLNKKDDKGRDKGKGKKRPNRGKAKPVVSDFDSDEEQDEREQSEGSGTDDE

Regarding `Cc1ncsc1-c1ccc(CNC(=O)[C@@H]2C[C@@H](O)CN2C(=O)[C@@H](NC(=O)CCN2C[C@@H]3[C@H](C2)[C@H]3C(=O)NCc2ccc(CCOc3cc(-c4ccccc4O)nnc3N)cc2)C(C)(C)C)cc1` [Compound 184, (1R,5S,6S)-N-[[4-(2-[[3-amino-6-(2-hydroxyphenyl)pyridazin-4-yl]oxy]ethyl)phenyl]methyl]-3-(2-[[(2S)-1-[(2S,4R)-4-hydroxy-2-([[4-(4-methyl-1,3-thiazol-5-yl)phenyl]methyl]carbamoyl)pyrrolidin-1-yl]-3,3-dimethyl-1-oxobutan-2-yl]carbamoyl]ethyl)-3-azabicyclo[3.1.0]hexane-6-carboxamide], on HiBiT-BRM, the “BRM HiBit Degradation Maximum (%)” value is “B (“B” indicates maximum degradation ≥50%)” and the DC50 is above 1000 nM. Also, on HiBit-BRG1, the DC50 was above 1000 nM and the Dmax was below 50%.

As to `Nc1nnc(-c2ccccc2O)cc1N1CCN(CC(=O)N2CC(COc3cccc4c3C(=O)N(C3CCC(=O)NC3=O)C4=O)C2)CC1` (centres unmarked) [Compound 76, 4-[[1-(2-[4-[3-amino-6-(2-hydroxyphenyl)pyridazin-4-yl]piperazin-1-yl]acetyl)azetidin-3-yl]methoxy]-2-(2,6-dioxopiperidin-3-yl)isoindole-1,3-dione], on HiBiT-BRM, the “BRM HiBit Degradation Maximum (%)” value is on record as “C (“C” indicates maximum degradation <50%)” and the DC50 is above 1000 nM. At HiBit-BRG1, the DC50 was above 1000 nM and the Dmax is below 50%.

Turning to `Nc1nnc(-c2ccccc2O)cc1OCCc1ccc(CNC(=O)CCCCCCCCCNc2ccc3c(c2)C(=O)N(C2CCC(=O)NC2=O)C3=O)cc1` (centres unmarked) [Compound 75, N-(4-(2-((3-amino-6-(2-hydroxyphenyl)pyridazin-4-yl)oxy)ethyl)benzyl)-10-((2-(2,6-dioxopiperidin-3-yl)-1,3-dioxoisoindolin-5-yl)amino)decanamide], the “BRM HiBit Degradation Maximum (%)” value at HiBiT-BRM is reported as “C (“C” indicates maximum degradation <50%)”. Besides, the DC50 on HiBiT-BRM and on HiBit-BRG1 was above 1000 nM each time.

`Cc1ncsc1-c1ccc([C@H](C)NC(=O)[C@@H]2C[C@@H](O)CN2C(=O)[C@@H](NC(=O)CCCCCCCCC(=O)NCc2ccc(CCOc3cc(-c4ccccc4O)nnc3N)cc2)C(C)(C)C)cc1` [Compound 257, N1-(4-(2-((3-amino-6-(2-hydroxyphenyl)pyridazin-4-yl)oxy)ethyl)benzyl)-N10-((S)-1-((2S,4R)-4-hydroxy-2-(((S)-1-(4-(4-methylthiazol-5-yl)phenyl)ethyl)carbamoyl)pyrrolidin-1-yl)-3,3-dimethyl-1-oxobutan-2-yl)decanediamide]: at HiBiT-BRM, the “BRM HiBit Degradation Maximum (%)” value was “A (“A” indicates maximum degradation ≥75%)” and the DC50 was above 10 nM. At HiBit-BRG1, the DC50 was above 1000 nM and the Dmax is below 50%.

For the compound `Cc1ncsc1-c1ccc([C@H](C)NC(=O)[C@@H]2C[C@@H](O)CN2C(=O)[C@@H](c2cc(OCCNCCCCC(=O)NCc3ccc(CCOc4cc(-c5ccccc5O)nnc4N)cc3)no2)C(C)C)cc1` [Compound 218, (2S,4R)-1-((R)-2-(3-(2-((5-((4-(2-((3-amino-6-(2-hydroxyphenyl)pyridazin-4-yl)oxy)ethyl)benzyl)amino)-5-oxopentyl)amino)ethoxy)isoxazol-5-yl)-3-methylbutanoyl)-4-hydroxy-N-((S)-1-(4-(4-methylthiazol-5-yl)phenyl)ethyl)pyrrolidine-2-carboxamide], on HiBiT-BRM, the “BRM HiBit Degradation Maximum (%)” value is “B (“B” indicates maximum degradation ≥50%)” and the DC50 was above 100 nM. At HiBit-BRG1, the DC50 was above 1000 nM and the Dmax was below 50%.

In the case of `Cc1ncsc1-c1ccc(CNC(=O)[C@@H]2C[C@@H](O)CN2C(=O)[C@@H](NC(=O)CCCCCCCCCCCCCCCC(=O)NCc2ccc(CCNc3cc(-c4ccccc4O)nnc3N)cc2)C(C)(C)C)cc1` [Compound 136, N′-[[4-(2-[[3-amino-6-(2-hydroxyphenyl)pyridazin-4-yl]amino]ethyl)phenyl]methyl]-N-[(2S)-1-[(2S,4R)-4-hydroxy-2-([[4-(4-methyl-1,3-thiazol-5-yl)phenyl]methyl]carbamoyl)pyrrolidin-1-yl]-3,3-dimethyl-1-oxobutan-2-yl]heptadecanediamide], on HiBiT-BRM, the “BRM HiBit Degradation Maximum (%)” value is reported as “B (“B” indicates maximum degradation ≥50%)” and the DC50 was above 100 nM. At HiBit-BRG1, the DC50 was above 1000 nM and the Dmax is below 50%.

In the case of `Nc1nnc(-c2ccccc2O)cc1OCCc1ccc(CNC(=O)CCCCNc2ccc3nnn(C4CCC(=O)NC4=O)c(=O)c3c2)cc1` (centres unmarked) [Compound 125, N-(4-(2-((3-amino-6-(2-hydroxyphenyl)pyridazin-4-yl)oxy)ethyl)benzyl)-5-((3-(2,6-dioxopiperidin-3-yl)-4-oxo-3,4-dihydrobenzo[d][1,2,3]triazin-6-yl)amino)pentanamide], on HiBiT-BRM, the “BRM HiBit Degradation Maximum (%)” value is given as “C (“C” indicates maximum degradation <50%)” and the DC50 was above 1000 nM. Also, at HiBit-BRG1, the DC50 is above 1000 nM and the Dmax was above 50%.

Take `Cc1ncsc1-c1ccc([C@H](C)NC(=O)[C@@H]2C[C@@H](O)CN2C(=O)[C@@H](c2cc(OCCN3CCC4(CC3)CC(C(=O)NCc3ccc(CCOc5cc(-c6ccccc6O)nnc5N)cc3)C4)no2)C(C)C)cc1` [Compound 195, N-(4-(2-((3-amino-6-(2-hydroxyphenyl)pyridazin-4-yl)oxy)ethyl)benzyl)-7-(2-((5-((R)-1-((2S,4R)-4-hydroxy-2-(((S)-1-(4-(4-methylthiazol-5-yl)phenyl)ethyl)carbamoyl)pyrrolidin-1-yl)-3-methyl-1-oxobutan-2-yl)isoxazol-3-yl)oxy)ethyl)-7-azaspiro[3.5]nonane-2-carboxamide]: on HiBiT-BRM, the “BRM HiBit Degradation Maximum (%)” value was “A (“A” indicates maximum degradation ≥75%)” and the DC50 is above 10 nM. At HiBit-BRG1, the DC50 is above 100 nM and the Dmax was above 75%.

Turning to `Nc1nnc(-c2ccccc2O)cc1OCCc1ccc(CNC(=O)CCCCOc2ccc3c(c2)C(=O)N(C2CCC(=O)NC2=O)C3=O)cc1` (centres unmarked) [Compound 5, N-(4-(2-((3-amino-6-(2-hydroxyphenyl)pyridazin-4-yl)oxy)ethyl)benzyl)-5-((2-(2,6-dioxopiperidin-3-yl)-1,3-dioxoisoindolin-5-yl)oxy)pentanamide], on HiBiT-BRM, the “BRM HiBit Degradation Maximum (%)” value was “C (“C” indicates maximum degradation <50%)” and the DC50 was above 1000 nM. In addition, at HiBit-BRG1, the DC50 was above 1000 nM.

Turning to `Nc1nnc(-c2ccccc2O)cc1OCCc1ccc(CNC(=O)CCCCCCCOc2cccc3c2C(=O)N(C2CCC(=O)NC2=O)C3=O)cc1` (centres unmarked) [Compound 69, N-[[4-(2-[[3-amino-6-(2-hydroxyphenyl)pyridazin-4-yl]oxy]ethyl)phenyl]methyl]-8-[[2-(2,6-dioxopiperidin-3-yl)-1,3-dioxoisoindol-4-yl]oxy]octanamide], at HiBiT-BRM, the “BRM HiBit Degradation Maximum (%)” value is reported as “C (“C” indicates maximum degradation <50%)” and the DC50 was above 1000 nM. Besides, at HiBit-BRG1, the DC50 was above 1000 nM and the Dmax was below 50%.

As to `Cc1ncsc1-c1ccc([C@H](C)NC(=O)[C@@H]2C[C@@H](O)CN2C(=O)[C@@H](c2cc(OCCN3CCN(c4cc(-c5ccccc5O)nnc4N)CC3)no2)C(C)C)cc1` [Compound 217, (2S,4R)-1-((R)-2-(3-(2-(4-(3-amino-6-(2-hydroxyphenyl)pyridazin-4-yl)piperazin-1-yl)ethoxy)isoxazol-5-yl)-3-methylbutanoyl)-4-hydroxy-N-((S)-1-(4-(4-methylthiazol-5-yl)phenyl)ethyl)pyrrolidine-2-carboxamide], on HiBiT-BRM, the “BRM HiBit Degradation Maximum (%)” value was “A (“A” indicates maximum degradation ≥75%)” and the DC50 was above 10 nM. Besides, at HiBit-BRG1, the DC50 is above 1000 nM and the Dmax was below 50%.

Consider `Cc1ncsc1-c1ccc([C@H](C)NC(=O)[C@@H]2C[C@@H](O)CN2C(=O)[C@@H](NC(=O)CCNCCCCCCCCCCC(=O)NCc2ccc(CCOc3cc(-c4ccccc4O)nnc3N)cc2)C(C)(C)C)cc1` [Compound 256, (2S,4R)-1-((S)-2-(3-((11-((4-(2-((3-amino-6-(2-hydroxyphenyl)pyridazin-4-yl)oxy)ethyl)benzyl)amino)-11-oxoundecyl)amino)propanamido)-3,3-dimethylbutanoyl)-4-hydroxy-N-((S)-1-(4-(4-methylthiazol-5-yl)phenyl)ethyl)pyrrolidine-2-carboxamide], for which, at HiBiT-BRM, the “BRM HiBit Degradation Maximum (%)” value is “C (“C” indicates maximum degradation <50%)” and the DC50 was above 1000 nM. Also, at HiBit-BRG1, the DC50 is above 1000 nM and the Dmax was below 50%.

Take `CN(CCNC(=O)COc1cccc2c1C(=O)N(C1CCC(=O)NC1=O)C2=O)CCNC(=O)CN1CCN(c2cc(-c3ccccc3O)nnc2N)CC1` (centres unmarked) [Compound 104, N-(2-[[2-(2-[4-[3-amino-6-(2-hydroxyphenyl)pyridazin-4-yl]piperazin-1-yl]acetamido)ethyl](methyl)amino]ethyl)-2-[[2-(2,6-dioxopiperidin-3-yl)-1,3-dioxo-2,3-dihydro-1H-isoindol-4-yl]oxy]acetamide]: on HiBiT-BRM, the “BRM HiBit Degradation Maximum (%)” value was “C (“C” indicates maximum degradation <50%)” and the DC50 is above 1000 nM. Moreover, on HiBit-BRG1, the DC50 was above 1000 nM and the Dmax is below 50%.
